The test addresses TRPV1 (Homo sapiens, UniProt Q8NER1). The test is described as follows: cell-based. The method, then: Combine 42 μL of dye mixture with 11 mL of FLIPR buffer/96-well plate.
Laser is adjusted upwards for an average signal≧10,000/well and less than 10% variability.

Sequence of TRPV1 (Q8NER1 whole entry, species assumed): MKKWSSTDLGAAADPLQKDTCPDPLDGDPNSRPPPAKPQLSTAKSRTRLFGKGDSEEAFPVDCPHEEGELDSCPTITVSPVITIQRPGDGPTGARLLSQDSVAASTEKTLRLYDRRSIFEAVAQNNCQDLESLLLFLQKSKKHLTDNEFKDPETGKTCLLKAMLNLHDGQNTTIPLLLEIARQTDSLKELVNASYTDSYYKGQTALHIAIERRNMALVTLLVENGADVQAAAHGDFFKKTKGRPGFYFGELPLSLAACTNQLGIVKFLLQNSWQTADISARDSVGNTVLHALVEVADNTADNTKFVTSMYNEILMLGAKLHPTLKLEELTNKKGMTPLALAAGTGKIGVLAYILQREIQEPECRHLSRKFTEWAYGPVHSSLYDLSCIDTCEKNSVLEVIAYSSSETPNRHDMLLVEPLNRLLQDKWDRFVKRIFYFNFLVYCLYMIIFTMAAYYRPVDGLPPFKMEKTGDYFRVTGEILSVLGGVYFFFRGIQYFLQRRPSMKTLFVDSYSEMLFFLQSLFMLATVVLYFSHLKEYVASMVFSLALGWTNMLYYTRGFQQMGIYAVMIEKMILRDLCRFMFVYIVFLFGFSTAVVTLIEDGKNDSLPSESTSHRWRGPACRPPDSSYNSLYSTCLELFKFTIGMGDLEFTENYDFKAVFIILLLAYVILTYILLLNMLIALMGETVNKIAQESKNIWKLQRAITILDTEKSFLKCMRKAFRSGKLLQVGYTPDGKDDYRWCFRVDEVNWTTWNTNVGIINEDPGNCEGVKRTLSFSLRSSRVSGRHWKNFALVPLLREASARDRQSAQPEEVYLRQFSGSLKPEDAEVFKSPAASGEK

Regarding `Oc1cc2c(cc1O)CN(C(=S)NCCc1ccc(Cl)cc1)CCC2` [capsazepine], the IC50 was ~500 nM.

By IC50 is commonly meant the concentration that gives 50% inhibition.

The values above are taken from patent US20080070890A1, “Spirocyclic Azetidinone Compounds and Methods of Use Thereof” (priority 2006, published 2008).
